Among the data in patent publication US11999739B2, “Antimicrobials methods of making and using the same” (BIOVERSYS AG, priority 2016, dated 2024) are MIC values, retold here.

For assay [1], the system named is Staphylococcus aureus (S. aureus) 11540 strain. Briefly: Standard microdilution MIC assay, S. aureus. The assay is classed as cell-based. The essentials: (§1)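 MICs obtained by CLSI-standard microdilution, quality-controlled with reference strains in parallel. Values reported as + or − relative to a 16 micrograms/mL cutoff.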
(In general: Broth dilution looks for growth in wells or tubes with falling amounts of substance.)

Assay [2] relates to Escherichia coli strain ATCC25922. Briefly: Standard microdilution MIC assay, E. coli. The assay is classed as cell-based. The essentials: as §1

Broadly, the MIC is the least concentration at which growth counts as inhibited. Low readings indicate inhibition by little substance, high ones a need for much substance. `C=C[C@@H](CCNC(=N)CF)NCc1ccc(-n2cc3cc(-c4cc(CCC[C@@H](N)C5CC5)cc(Cl)c4F)[nH]c3nc2=O)cc1` [Compound 89]: the minimal inhibitory concentration (MIC) in assay [1] and in assay [2] was at most 16 µg/mL in each case.

`CC(=N)NCC[C@@H]1CCC[C@@H](c2ccc(-n3cc4cc(-c5cc(CCC[C@H](C)N)cc(Cl)c5F)[nH]c4nc3=O)cc2)N1CCn1ccnc1` [Compound 262]: the MIC in assay [1] and in assay [2] was at most 16 µg/mL each time.

As to `C[C@H](N)CCCc1cc(Cl)c(F)c(-c2cc3cn(-c4ccc([C@H]5CNC[C@@H](CCNC(=N)CF)N5)cc4)c(=O)nc3[nH]2)c1` [Compound 46], the MIC in assay [1] and in assay [2] was at most 16 µg/mL throughout.

`C[C@H](N)CCCc1cc(Cl)c(F)c(-c2cc3cn(-c4ccc([C@@H]5CNC[C@H](CCNC(=N)CF)O5)cc4)c(=O)nc3[nH]2)c1` [Compound 28]: the minimal inhibitory concentration (MIC) in assay [1] and in assay [2] was at most 16 µg/mL each time.

Turning to `CSc1cc(-n2cc3cc(-c4cc(CCC[C@@H](N)CF)cc(Cl)c4F)[nH]c3nc2=O)ccc1[C@@H]1CCC[C@@H](CCNC(C)=N)N1` [Compound 126], the MIC in assay [1] and in assay [2] was at most 16 µg/mL throughout.

As to `COC[C@H](N)CCCc1cc(OC(F)(F)F)c(F)c(-c2cc3cn(-c4cc(F)c([C@@H]5CCC[C@@H](CCNC(C)=N)N5)c(SC)c4)c(=O)nc3[nH]2)c1` [Compound 241], the MIC in assay [1] and in assay [2] was at most 16 µg/mL each time.

For `CC(=N)NCC[C@@H]1CCC[C@@H](c2ccc(-n3cc4cc(-c5cc(CCC[C@@H](N)C6CC6)cc(C(F)(F)F)c5)[nH]c4nc3=O)cc2F)N1CCCF` [Compound 327], the MIC in assay [1] and in assay [2] was at most 16 µg/mL in each case.

With `CSc1cc(-n2cc3cc(-c4cc(CCC[C@@H]5COCCN5)cc(Cl)c4F)[nH]c3nc2=O)ccc1[C@@H]1CCC[C@@H](CCNC(C)=N)N1` [Compound 260], the minimal inhibitory concentration (MIC) in assay [1] and in assay [2] was at most 16 µg/mL each time.

In the case of `CC(=N)NCC[C@@H]1CCC[C@@H](c2ccc(-n3cc4cc(-c5ccc(C(F)(F)F)c(CCC[C@H](C)N)c5)[nH]c4nc3=O)cc2)N1` [Compound 287], the MIC in assay [1] and in assay [2] was at most 16 µg/mL throughout.

Turning to `CC(=N)NCC[C@@H]1CCC[C@@H](c2ccc(-n3cc4cc(-c5cc(CCC[C@@H](N)CO)cc(OC(F)(F)F)c5F)[nH]c4nc3=O)cc2OC(F)(F)F)N1` [Compound 231], the MIC in assay [1] and in assay [2] was at most 16 µg/mL in each case.

As for `CC(=N)NCC[C@@H]1CCC[C@@H](c2ccc(-n3cc4cc(-c5cc(CCC[C@H](C)N)cc(Cl)c5F)[nH]c4nc3=O)cc2)N1CCn1ccnc1C` [Compound 263], the MIC in assay [1] and in assay [2] was at most 16 µg/mL throughout.

`CC(=N)NCCCN[C@H](c1ccc(-n2cc3cc(-c4cc(CCC[C@H](C)N)cc(Cl)c4F)[nH]c3nc2=O)cc1)C(F)(F)F` [Compound 130]: the minimum inhibitory concentration (MIC) in assay [1] and in assay [2] was at most 16 µg/mL in each case.

On to `C=C[C@H](N)CCCc1cc(-c2cc3cn(-c4ccc([C@@H]5CCC[C@@H](CCNC(C)=N)N5CCCF)c(SC)c4)c(=O)nc3[nH]2)cc(C(F)(F)F)c1` [Compound 342], for which the MIC in assay [1] and in assay [2] was at most 16 µg/mL in each case.

Turning to `C=C[C@@H](CCNC(C)=N)NCc1ccc(-n2cc3cc(-c4cc(CCC[C@@H](N)C5CC5)cc(Cl)c4F)[nH]c3nc2=O)cc1` [Compound 87], the minimum inhibitory concentration (MIC) in assay [1] and in assay [2] was at most 16 µg/mL in each case.

Regarding `CCCC(=N)NCC[C@@H]1CCC[C@@H](c2ccc(-n3cc4cc(-c5cc(CCC[C@H](C)N)cc(Cl)c5F)[nH]c4nc3=O)cc2)N1` [Compound 352], the MIC in assay [1] and in assay [2] was at most 16 µg/mL in each case.

For the molecule `C=C[C@H](N)CCCc1cc(Cl)c(F)c(-c2cc3cn(-c4ccc([C@@H]5CCC[C@@H](CCNC(C)=N)N5)cc4)c(=O)nc3[nH]2)c1` [Compound 82], the MIC in assay [1] and in assay [2] was at most 16 µg/mL in each case.

In the case of `C=C[C@@H](CCNC(C)=N)N[C@@H](C)c1ccc(-n2cc3cc(-c4cc(CCC[C@H](C)N)cc(Cl)c4F)[nH]c3nc2=O)cc1F` [Compound 183], the minimum inhibitory concentration (MIC) in assay [1] and in assay [2] was at most 16 µg/mL throughout.

`CSc1cc(-n2cc3cc(-c4cc(CCC[C@@H](N)CF)cc(C(F)(F)F)c4F)[nH]c3nc2=O)ccc1[C@@H]1CCC[C@@H](CCNC(C)=N)N1` [Compound 255]: the minimum inhibitory concentration (MIC) in assay [1] and in assay [2] was at most 16 µg/mL each time.

For `C=C[C@@H](CCNC(=N)CCO)NCc1ccc(-n2cc3cc(-c4cc(CCC[C@H](C)N)cc(Cl)c4F)[nH]c3nc2=O)cc1` [Compound 15], the minimal inhibitory concentration (MIC) in assay [1] and in assay [2] was at most 16 µg/mL in each case.

For `C=CC(CCNC(=N)CCOCC)NCc1ccc(-n2cc3cc(-c4cc(CCC[C@H](C)N)cc(Cl)c4F)[nH]c3nc2=O)cc1` (some centres unmarked) [Compound 10], the MIC in assay [1] and in assay [2] was at most 16 µg/mL throughout.

With `C=C[C@@H](CCNC(C)=N)N[C@@H](C)c1ccc(-n2cc3cc(-c4cc(CCC[C@@H](N)C5CC5)cc(Cl)c4F)[nH]c3nc2=O)cc1` [Compound 164], the MIC in assay [1] and in assay [2] was at most 16 µg/mL throughout.

With `CC(=N)NCCCN[C@@H](CO)c1ccc(-n2cc3cc(-c4cc(CCC[C@H](C)N)cc(Cl)c4F)[nH]c3nc2=O)cc1` [Compound 132], the minimum inhibitory concentration (MIC) in assay [1] and in assay [2] was at most 16 µg/mL in each case.

Regarding `CC(C)(N)CCCc1cc(Cl)c(F)c(-c2cc3cn(-c4ccc([C@@H]5COC[C@@H](CCNC(=N)CF)N5)cc4)c(=O)nc3[nH]2)c1` [Compound 69], the minimum inhibitory concentration (MIC) in assay [1] and in assay [2] was at most 16 µg/mL throughout.

Consider `COC[C@H](N)CCCc1cc(OC(F)(F)F)c(F)c(-c2cc3cn(-c4ccc([C@@H]5CCC[C@@H](CCNC(C)=N)N5)c(OC)c4)c(=O)nc3[nH]2)c1` [Compound 197], for which the MIC in assay [1] and in assay [2] was at most 16 µg/mL each time.

Regarding `COC[C@H](N)CCCc1cc(OC(F)(F)F)c(F)c(-c2cc3cn(-c4ccc([C@@H]5CSC[C@@H](CCNC(C)=N)N5)cc4)c(=O)nc3[nH]2)c1` [Compound 270], the MIC in assay [1] and in assay [2] was at most 16 µg/mL in each case.

As for `CSC[C@@H](CCNC(C)=N)NCc1ccc(-n2cc3cc(-c4cc(CCC[C@H](C)N)cc(Cl)c4F)[nH]c3nc2=O)cc1` [Compound 95], the minimal inhibitory concentration (MIC) in assay [1] and in assay [2] was at most 16 µg/mL in each case.

Regarding `CC(=N)NCCCN[C@H](C)c1ccc(-n2cc3cc(-c4cc(CCC[C@H](C)N)cc(Cl)c4F)[nH]c3nc2=O)cc1F` [Compound 112], the MIC in assay [1] and in assay [2] was at most 16 µg/mL in each case.

On to `C=C[C@@H](CCNC(C)=N)NCc1ccc(-n2cc3cc(-c4cc(CCC[C@@H](N)CF)cc(Cl)c4F)[nH]c3nc2=O)cc1` [Compound 103], for which the MIC in assay [1] and in assay [2] was at most 16 µg/mL each time.

In the case of `CC(=N)NCC[C@@H]1CCC[C@@H](c2ccc(-n3cc4cc(-c5cc(CCC[C@@H](N)C6CC6)cc(C(F)(F)F)c5)[nH]c4nc3=O)cc2)N1CCCF` [Compound 330], the MIC in assay [1] and in assay [2] was at most 16 µg/mL each time.

Take `C=CC(CCNC(=N)CF)NCc1ccc(-n2cc3cc(-c4cc(CCC(C)(C)CN)cc(Cl)c4F)[nH]c3nc2=O)cc1` (centres unmarked) [Compound 27]: the MIC in assay [1] and in assay [2] was at most 16 µg/mL each time.

As for `CC(=N)NCC[C@@H]1CCC[C@@H](c2ccc(-n3cc4cc(-c5cc(CCC[C@@H](N)C6CC6)cc(OC(F)(F)F)c5F)[nH]c4nc3=O)cc2F)N1` [Compound 208], the MIC in assay [1] and in assay [2] was at most 16 µg/mL each time.

Consider `N=C(CF)NCC[C@@H]1COC[C@@H](c2ccc(-n3cc4cc(-c5cc(CCC[C@@H](N)C(F)(F)F)cc(Cl)c5F)[nH]c4nc3=O)cc2)N1` [Compound 67], for which the MIC in assay [1] and in assay [2] was over 16 µg/mL in each case.

As for `CC(=N)NCC[C@@H]1CCC[C@@H](c2ccc(-n3cc4cc(-c5cc(CCC[C@H](C)N)cc(C(F)(F)F)c5)[nH]c4nc3=O)cc2)N1` [Compound 172], the MIC in assay [1] and in assay [2] was at most 16 µg/mL throughout.

In the case of `C=CC(CCNC(C)=N)NCc1ccc(-n2cc3cc(-c4cc(CCC[C@@H](N)CO)cc(Cl)c4F)[nH]c3nc2=O)cc1` (some centres unmarked) [Compound 8], the MIC in assay [1] and in assay [2] was at most 16 µg/mL in each case.

In the case of `CC(=N)NCC[C@@H]1CCC[C@@H](c2ccc(-n3cc4cc(-c5cc(CCC[C@H](C)N)cc(Cl)c5F)[nH]c4nc3=O)cn2)N1` [Compound 192], the MIC in assay [1] and in assay [2] was at most 16 µg/mL in each case.

For `CC(=N)NCC[C@@H]1CCC[C@@H](c2ccc(-n3cc4cc(-c5cc(CCC[C@@H]6COCCN6)cc(Cl)c5F)[nH]c4nc3=O)cc2)N1` [Compound 226], the MIC in assay [1] and in assay [2] was at most 16 µg/mL throughout.

Turning to `COC(=O)c1ccc(-c2cc3cn(-c4ccc([C@@H]5CCC[C@@H](CCNC(C)=N)N5)cc4)c(=O)nc3[nH]2)cc1CCC[C@H](C)N` [Compound 291], the minimal inhibitory concentration (MIC) in assay [1] and in assay [2] was at most 16 µg/mL throughout.

As to `C=C[C@@H](CCNC(C)=N)NCc1ccc(-n2cc3cc(-c4cc(CCC[C@H](C)N)cc(Cl)c4F)[nH]c3nc2=O)cc1` [Compound 14], the minimal inhibitory concentration (MIC) in assay [1] and in assay [2] was at most 16 µg/mL each time.

Turning to `CC(=N)NCCCNC1(c2ccc(-n3cc4cc(-c5cc(CCC[C@H](C)N)cc(Cl)c5F)[nH]c4nc3=O)cc2)CC1` [Compound 145], the minimum inhibitory concentration (MIC) in assay [1] and in assay [2] was at most 16 µg/mL throughout.

For `CC(=N)NCC[C@H](CO)NCc1ccc(-n2cc3cc(-c4cc(CCC[C@@H](N)CO)cc(Cl)c4F)[nH]c3nc2=O)cc1` [Compound 35], the minimal inhibitory concentration (MIC) in assay [1] and in assay [2] was at most 16 µg/mL each time.

For `CC(=N)NCC[C@@H]1CCC[C@@H](c2ccc(-n3cc4cc(-c5cc(CCC[C@@H](N)CF)cc(C(F)(F)F)c5)[nH]c4nc3=O)cc2F)N1` [Compound 205], the MIC in assay [1] and in assay [2] was at most 16 µg/mL in each case.

As for `CC(=N)NCC[C@@H]1CCC[C@@H](c2ccc(-n3cc4cc(-c5cc(CCC[C@@H](N)C6CC6)cc(C(F)(F)F)c5F)[nH]c4nc3=O)cc2)N1` [Compound 212], the minimum inhibitory concentration (MIC) in assay [1] and in assay [2] was at most 16 µg/mL throughout.

With `CSC[C@@H](CCNC(=N)CF)NCc1ccc(-n2cc3cc(-c4cc(CCC[C@H](C)N)cc(Cl)c4F)[nH]c3nc2=O)cc1` [Compound 88], the MIC in assay [1] and in assay [2] was at most 16 µg/mL throughout.
